# Data: article PMC10525924, “Engineering and Purification of Microcin C7 Variants Resistant to Trypsin and Analysis of Their Biological Activity” (Antibiotics, 2023)
# “Also recorded” adds a separate entry of the source. Where a SMILES comes first, the peptide text is derived from it. Where no end group is shown, it is not given here.
# Tests used:
# chymotrypsin [1] = assay: Remaining amount by RP-HPLC after chymotrypsin treatment; assay type: in vitro ADME; details: chymotrypsin (isolated protease); chymotrypsin treated for 3 h; read-out RP-HPLC; Table S2
# indicator bacteria = details: second to seventh codons of mccA replaced; cited from earlier work
# Source text: The heptapeptide precursor of McC, f-MRTGNAN, is encoded by the first gene in the mcc gene clusters, mccA [11]. Considering its protein nature, it is suitable for gene-based peptide engineering. Kazakov et al. first applied site-directed mutagenesis on the mccA gene, systematically replacing the second to seventh codons of mccA encoding 19 standard amino acids for a total of 114 mutations.
# E. coli K88 = assay: microbe, parasite or virus in culture; assay type: cell-based; details: agar diffusion, fermentation supernatant, not trypsin-treated
# pepsin = assay: Remaining amount by RP-HPLC after pepsin treatment; assay type: in vitro ADME; details: pepsin (isolated protease); pepsin treated for 3 h; read-out RP-HPLC; Table S2
# trypsin = assay: Remaining amount by RP-HPLC after trypsin treatment; details: trypsin treatment 3 h
# Description: To test whether the variants were tolerant to trypsin or other digestive enzymes, the amount of the remaining McC and its analogues remaining was determined by RP-HPLC after trypsin, pepsin, and chymotrypsin treated for 3 h (Table S2), and the inhibition zones of trypsin-treated variants were tested using the same method (Table 2).
# The fermentation broth was collected via centrifugation at 12,000× g at 4 °C for 10 min; the supernatants contained the McC variants. The supernatants and trypsin were mixed at a ratio of 9:1 (v/v; the final concentration of trypsin was 50 μg/mL) and incubated in a bath at 37 °C for 3 h. The pH was adjusted to 6.8. The pH value of the fermentation broth was measured before and after treatment, and an approximate pH value of 7 was considered normal.
# [2] = cited from earlier work
# Source text: (§1) The McC as a new generation of antimicrobials is now receiving increased attention because of its antimicrobial activity against a wide range of Gram-negative bacteria, including Escherichia, Klebsiella, Salmonella, Shigella, and Proteus species. However, […] proteolytic enzymes in the stomach and the small intestine, such as pepsin, trypsin, and chymotrypsin, need to be considered before the application of McC or other microcins in different fields.
# chymotrypsin [3] = details: cited from earlier work
# Source text: as §1
Compound,remaining at 3 h (chymotrypsin [1]) [%],antimicrobial activity of mccA substitution variants (indicator bacteria),bacteriostatic effect on indicator strain K88 (E. coli K88),remaining at 3 h (pepsin) [%],degradation by / resistance to trypsin (trypsin),stability in the gastrointestinal tract [2],degradation upon exposure to chymotrypsin (chymotrypsin [3])
CSCC[C@H](NC=O)C(=O)N[C@@H](Cc1c[nH]c2ccccc12)C(=O)N[C@H](C(=O)NCC(=O)N[C@@H](CC(N)=O)C(=O)N[C@@H](C)C(=O)N[C@@H](CC(=O)O)C(=O)NP(=O)(OCCCN)OC[C@H]1O[C@@H](n2cnc3c(N)ncnc32)[C@H](O)[C@@H]1O)[C@@H](C)O (stereo partly shown) [R2W] (HELM PEPTIDE1{[O=C[*:2]].M.W.T.G.N.A.[NCCCOP(=O)(NC(=O)[C@H](CC(=O)O)N[*:1])OC[C@H]1O[C@@H](n2cnc3c(N)ncnc32)[C@H](O)[C@@H]1O]}$$$$V2.0),41.3 ± 1.03,bacteriostatic,no bacteriostatic effects,91.3 ± 1.26,–,–,–
MRPGNAN [T3P],–,–,no bacteriostatic effects,–,no longer degraded by trypsin; also recorded: exhibited resistance to trypsin,–,–
MRPTGNAN,–,–,no bacteriostatic effects,–,no longer degraded by trypsin; also recorded: exhibited resistance to trypsin,–,–
"microcin J25 (GGAGHVPEYFVGIGTPISFYG; ends and bridges not checked; UniProt Q9X2V7 38-58, looked up) [microcin studied by Yu et al]",–,–,–,–,–,stable,completely degraded
